Counter-ions that a name gives are not always drawn. Like-named read-outs stand apart in the source and are kept apart here.
Target: β-lactamase of Enterobacter cloacae P99 (Enterobacter cloacae, UniProt P05364)
Test: P99 β-lactamase inhibitory activity (loss of nitrocefin hydrolysis by free enzyme)
Assay type: biochemical
Method: The activity of the present compounds against β-lactamases was determined by measuring the IC50. The IC50 value represents the concentration of inhibitor required to effect a 50% loss of activity of free enzyme. The present 7-vinylidenecephems were evaluated as inhibitors of the β-lactamase of Enterobacter cloacae P99. The IC50 value of each compound was determined as follows. Following a 10 minute incubation of a dilute solution of enzyme (2.56 nM) and inhibitor (<0.64 mM), a […] of this incubation mixture was then further diluted into 1 mL nitrocefin solution, and the rate of hydrolysis was measured during a 1 minute period by monitoring the absorbance of nitrocefin as a function of time.

[1] = P99 β-lactamase, 10 minute incubation of enzyme (2.56 nM) and inhibitor (<0.64 mM), then dilution into nitrocefin solution, rate over 1 minute
[2] = P99 β-lactamase, 10 minute incubation of enzyme (2.56 nM) and inhibitor (<0.64 mM), then dilution into nitrocefin solution, rate over 1 minute, read-out: IC50 (converted)

Sequence of β-lactamase of Enterobacter cloacae P99 (P05364 21-381): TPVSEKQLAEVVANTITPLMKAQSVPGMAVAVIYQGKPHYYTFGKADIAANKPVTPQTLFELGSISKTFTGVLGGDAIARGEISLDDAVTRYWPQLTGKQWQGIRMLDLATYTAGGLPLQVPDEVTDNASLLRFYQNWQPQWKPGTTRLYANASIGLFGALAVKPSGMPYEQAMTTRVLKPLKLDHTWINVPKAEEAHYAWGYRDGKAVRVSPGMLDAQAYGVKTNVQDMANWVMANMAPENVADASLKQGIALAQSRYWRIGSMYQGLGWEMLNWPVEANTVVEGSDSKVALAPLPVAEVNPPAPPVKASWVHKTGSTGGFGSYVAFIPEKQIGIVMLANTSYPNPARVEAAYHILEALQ

## 7-(2'α-t-butyl-2'β-deuteriovinylidene) cephem sulfone
[1]
  IC50: 100 µg/mL

## CC(C)(C)C=C=C1C(=O)N2[C@@H](C(=O)O)C(C)(C)S(=O)(=O)[C@H]12 [6-(2'α-t-butylvinylidene) penam sulfone, reference compound]
[2]
  IC50: 1240 nM

## CC(=O)OCC1=C(C(=O)O)N2C(=O)C(=C=CC(C)(C)C)[C@H]2SC1 [Compound 13, Sodium Salt of 7-(2'α-t-Butylvinylidene) Cephalosporanic Acid]
[2]
  IC50: 11600 nM

## CC(=O)OCC1=C(C(=O)[O-])N2C(=O)C(=C=CBr)C2SC1.[Na+] (stereo not drawn) [Compound 14, Sodium Salt of 7-(2'α-Bromovinylidene) Cephalosporanic Acid]
[1]
  IC50: 6160 µg/mL

## C=C=C1C(=O)N2C(C(=O)O)=C(COC(C)=O)CS[C@H]12 [Compound 15, Sodium Salt of 7-Vinylidene Cephalosporanic Acid]
[2]
  IC50: 91800 nM

## CC(=O)OCC1=C(C(=O)O)N2C(=O)C(=C=CC(C)(C)C)[C@H]2S(=O)(=O)C1 [Compound 16, Sodium Salt of 7-(2'α-t-Butylvinylidene) Cephalosporanic Acid Sulfone]
  fold better inhibitor than clavulanic acid: ~350 fold
  fold better inhibitor than tazobactam: approximately five
  β-lactamase inhibition (in words): most potent inhibitor
read-out: IC50 (converted)
  IC50: 135 nM

## C=C=C1C(=O)N2C(C(=O)O)=C(COC(C)=O)CS(=O)(=O)[C@H]12 [Compound 17, 7-vinylidenecephem sulfone]
[2]
  IC50: 351 nM
